Measured values published in patent US20140329776A1, “Mitochondria-Targeted Antioxidants for Treatment of Age-Related Brain Disorders” (MITOTECH S.A., priority 2011, published 2014).

What was measured:
[1] = system: chronically alcoholised rats; assay: elevated plus maze test of chronically alcoholised rats; type: in vivo, rat; settings: SkQ1 250 nM solution orally every two days for 20 days, vs Negative Control
Procedure: FIG. 10 is a graphic representation showing behavior parameters in the elevated plus-maze test of chronically alcoholised rats in % to intact control. (*−p<0.05; ** −p<0.005 to negative control; #—p<0.05, ##—p<0.01, to intact control);
(§1) Male albino rats had free access to a 15% ethanol solution, as well as to food and water. After 6 months of alcoholisation, animals with average consumption more than 11 ml of 15% ethanol solution were divided into two even groups and subjected to the following treatment. The Negative Control group (n=16) (chronically alcoholised rats) were orally administered 1 ml per kg of isotonic 0.9% NaCl solution every two days for 20 days during alcohol deprivation. The SkQ1 group (n=17) (chronically alcoholised rats) were orally administered 1 ml per kg of SkQ1 250 nM solution every two days for 20 days during alcohol deprivation. The Intact Control group (n=10) (animals had no previous contact with ethanol) were orally administered 1 ml per kg of normal physiological solution every two days for 20 days.
(§2) After this course of drug administration, the effect on behavioral parameters was observed using the open field test, the elevated plus maze test, and the Porsolt forced swimming test.

[2] = system: chronically alcoholised rats; assay: open field test of chronically alcoholised rats; type: in vivo, rat; settings: vs Negative Control
Procedure: FIG. 9 is a graphic representation showing behavior parameters in the open field test of chronically alcoholised rats in % to intact control. (*−p<0.05; **—p<0.005 to negative control; #—p<0.05, ##—p<0.01, to intact control);
as §1, §2
In the open field test, treated animals had increased number of rearing ((p<0.05), number of entrance in central zone (p<0.01), movement time in central zone (p<0.05)) compared to the Negative Control group (FIG. 9. Therefore, SkQ1 increases exploratory activity during alcohol deprivation.

[3] = system: hippocampal slice neurons; assay: long-term potentiation (LTP) of hippocampal slices treated with Aβ after in vivo treatment; parameters: species or system rat
Procedure: FIG. 3B is a graphic representation showing the LTP caused by in vitro addition of Aβ, where the decay of LTP of hippocampal slice neurons characterized by a decrease of pop-spike amplitude (%) in a hippocampal slice treated with Aβ.
SkQR1 Aβ was added 15 min before the LTP induction with high-frequency electric stimulation (arrow). The decay of LTP (i.e. decrease of pop-spike amplitude) in a hippocampal slice treated with Aβ can be prevented by SkQR1 treatment.
FIG. 16 is a bar graph comparing the neuroprotective effects of preferred SkQ mitochondria-targeted antioxidants of the invention when administered in vivo in a model of Alzheimer disease.
As a model of cell memory, an electric response of a hippocampal slice (long-term potentiation, LTP) was used (Malenka, et al., Science 285:1870-1874 (1999)). A direct experiment was performed showing the prevention of Aβ toxicity in hippocampus by in vivo treatment of rats with 1 μmol SkQR1 per kg of body weight. The compound was injected intraperitoneally into the animal 24 hours before hippocampal slices were obtained to measure LTP. Some slices were pretreated with Aβ for 15 minutes. As is seen in FIG. 3B, Aβ impaired LTP relative to untreated control.
FIG. 16 provides a comparison of the neuroprotective effects of SkQ1, SkQR1 and C12TPP based on the LTP signal in neurons of hippocampal slices. Ab stands for beta-amyloid treatment. […] All SkQs and C12TPP were administered in vivo to rats prior the extraction of hippocampus.

Wistar rats [4] = assay: muscle strength measurement 4 hours after ethanol narcosis; type: in vivo, rat; settings: SkQ1 250 nM after ethanol narcosis; p<0.05
Procedure: FIG. 6 is a graphic representation showing muscle strength measurement 4 hours after ethanol narcosis in % to intact control. *−p<0.05 to negative control, #−p<0.05 to intact control;
(§3) In these experiments, 6 groups of experimental animals (Wistar rats) were used. (1) The Intact Control group (n=12), had no ethanol narcosis, and were orally administered a normal isotonic 0.9% NaCl solution; (2) the Negative Control group (n=12) was orally administered a normal physiological solution after ethanol narcosis; (3) The SkQ1 50 nM control group (n=12) was orally administered SkQ1 in a concentration 50 nM after ethanol narcosis; (4) The SkQ1 250 nM control group (n=12) was orally administered SkQ1 in a concentration of 250 nM after ethanol narcosis; (5) The SkQ1 1250 nM control group (n=12) was orally administered SkQ1 in a concentration of 1250 nM after ethanol narcosis; (6) the SkQ1 1250 nM intr control group (n=13) was intraperitoneally administered SkQ1 in a concentration of 1250 nM after ethanol narcosis.
In the Negative Control group ethanol intoxication caused a decrease of locomotor activity compared to Intact Control group: decreased track length (p<0.05), movement time (p<0.05), mean speed (p<0.05) and increased immobilization time (p<0.05) (FIG. 4). […]

Wistar rats [5] = assay: elevated plus maze test 24 hours after ethanol narcosis; type: in vivo, rat; settings: 250 nM SkQ1 group; p<0.05
Procedure: FIG. 8 is a graphic representation showing behavior parameters in the elevated plus maze test 24 hours after ethanol narcosis in % to negative control. (*−p<0.05 to intact control);
as §3
Twenty-four hours after ethanol narcosis, elevated plus maze (Treit et al. (1993) Pharmacol. Biochem. Behav. 44:463-9) and Porsolt forced swimming (Petit-Demouliere et al. (2005) Psychopharmacol. (Berl). 177: 245-55) tests were performed. […]

[6] = system: chronically alcoholised rats; assay: Porsolt forced swimming test of chronically alcoholised rats; type: in vivo, rat; settings: SkQ1 250 nM solution orally every two days for 20 days; p<0.05
Procedure: FIG. 11 is a graphic representation showing behavior parameters in the Porsolt forced swimming test of chronically alcoholised rats in % to intact control. (*−p<0.05 SKQ-1 to negative control); and
as §1, §2

CC1=C(C)C(=O)C(CCCCCCCCCC[P+](c2ccccc2)(c2ccccc2)c2ccccc2)=CC1=O [SkQ1, plastoquinonyl decyltriphenyl-phosphonium]
number of looking out from closed arms [1]: increased | rearing ([1]; p<0.005): increased | movement time in central zone ([1]; p<0.05): increased | track length in closed arms ([1]; p<0.05): increased | number of rearing ([2]; 1 ml per kg SkQ1 250 nM solution orally every two days for 20 days during alcohol deprivation, p<0.05): increased | number of entrance in central zone ([2]; SkQ1 250 nM solution orally every two days for 20 days, p<0.01): increased | movement time in central zone ([2]; SkQ1 250 nM solution orally every two days for 20 days, p<0.05): increased | neuroprotective activity based on LTP signal, model of Alzheimer disease ([3]; administered in vivo to rats prior to extraction of hippocampus, beta-amyloid treatment, FIG. 16): neuroprotective activity | impairment (decay) of LTP caused by Aβ ([3]; in vivo treatment (SkQR1 1 μmol/kg i.p. 24 hours before slices), Aβ added to slices for 15 min): prevents decay | muscle strength (Wistar rats [4]): increasing | looking out from closed arms (Wistar rats [5]): increased | number of risk behavior (Wistar rats [5]): increased | immobilization time [6]: less
